In patent US8791145B2, “Agricultural formulations with acyl morpholines and polar aprotic co-solvents” (Akzo Nobel Chemicals International B.V., priority 2010, dated 2014):

How the values were obtained:
Type in all cases: physicochemical
[1] = Differential scanning calorimetry, enthalpy of evaporation; conditions: DSC 20° C. to 300° C., 5° C./minute
Experimental: To monitor the enthalpy of evaporation differential scanning calorimetry was used. The reason for these measurements was to determine the cohesion forces between N-formyl morpholine and propylene carbonate. The mixtures (N-formyl morpholine/propylene carbonate in different ratio) were scanned from 20° C. to 300° C. with a temperature increase of 5° C./minute, using a DSC1 calorimeter from Mettler Toledo with STARe software.

[2] = Dilution of Amicarbazone formulation in water, ocular inspection; design: key: +: No crystals; −: Permanent crystals; conditions: 100 g/L diluted to 7 g/L
Experimental: The co-solvents used were propylene carbonate (PC), dimethylformamide (DMF) and ethyl lactate (EL). The amount of each co solvent, in % by weight of the total weight of morpholine and co-solvent, can be seen in table 2. The solutions were diluted in local tap water to an end concentration of 7 g/L and the dilution was judged by ocular inspection with the naked eye, and in the table below the following is used: • + No crystals • − Permanent crystals

[3] = Solubility in acyl morpholines; conditions: 23° C.
Experimental: Various agriculturally active ingredients were dissolved in N-formyl morpholine, N-acetyl morpholine and N-propionyl morpholine in order to evaluate the solubility of the active ingredients in the solvents. This was done by adding the active ingredient to a beaker and thereafter adding the solvent until a clear solution was obtained. The solutions were continually stirred at a temperature of 23° C. during the experiments. When everything had been dissolved, the beakers were left without stirring for 24 h to see if the solution was stable (i.e. no crystallization).

CC1COC(=O)O1 (centres unmarked) [0:100, propylene carbonate]
Enthalpy of evaporation [1]: 392 J/g

O=CN1CCOCC1 [100:0, 4-formyl morpholine]
Enthalpy of evaporation [1]: 382 J/g

CC(C)c1nn(C(=O)NC(C)(C)C)c(=O)n1N [Amicarbazone]
Crystallization upon dilution in water ([2]; NAM, 0% DMF): − | Crystallization upon dilution in water ([2]; NAM, 0% EL): − | Crystallization upon dilution in water ([2]; NAM, 0% PC): − | Crystallization upon dilution in water ([2]; NAM, 5% DMF): − | Crystallization upon dilution in water ([2]; NAM, 5% EL): − | Crystallization upon dilution in water ([2]; NAM, 5% PC): − | Crystallization upon dilution in water ([2]; NAM, 10% DMF): − | Crystallization upon dilution in water ([2]; NAM, 10% EL): − | Crystallization upon dilution in water ([2]; NAM, 10% PC): − | Crystallization upon dilution in water ([2]; NAM, 20% DMF): − | Crystallization upon dilution in water ([2]; NAM, 20% EL): − | Crystallization upon dilution in water ([2]; NAM, 20% PC): − | Crystallization upon dilution in water ([2]; NAM, 30% DMF): − | Crystallization upon dilution in water ([2]; NAM, 30% EL): − | Crystallization upon dilution in water ([2]; NAM, 30% PC): − | Crystallization upon dilution in water ([2]; NAM, 50% DMF): − | Crystallization upon dilution in water ([2]; NAM, 50% EL): − | Crystallization upon dilution in water ([2]; NAM, 50% PC): − | Crystallization upon dilution in water ([2]; NAM, 95% DMF): + | Crystallization upon dilution in water ([2]; NAM, 95% EL): − | Crystallization upon dilution in water ([2]; NAM, 95% PC): − | Crystallization upon dilution in water ([2]; NFM, 0% DMF): − | Crystallization upon dilution in water ([2]; NFM, 0% EL): − | Crystallization upon dilution in water ([2]; NFM, 0% PC): − | Crystallization upon dilution in water ([2]; NFM, 5% DMF): − | Crystallization upon dilution in water ([2]; NFM, 5% EL): − | Crystallization upon dilution in water ([2]; NFM, 5% PC): − | Crystallization upon dilution in water ([2]; NFM, 10% DMF): − | Crystallization upon dilution in water ([2]; NFM, 10% EL): − | Crystallization upon dilution in water ([2]; NFM, 10% PC): − | Crystallization upon dilution in water ([2]; NFM, 20% DMF): − | Crystallization upon dilution in water ([2]; NFM, 20% EL): − | Crystallization upon dilution in water ([2]; NFM, 20% PC): + | Crystallization upon dilution in water ([2]; NFM, 30% DMF): − | Crystallization upon dilution in water ([2]; NFM, 30% EL): − | Crystallization upon dilution in water ([2]; NFM, 30% PC): − | Crystallization upon dilution in water ([2]; NFM, 50% DMF): − | Crystallization upon dilution in water ([2]; NFM, 50% EL): − | Crystallization upon dilution in water ([2]; NFM, 50% PC): − | Crystallization upon dilution in water ([2]; NFM, 95% DMF): + | Crystallization upon dilution in water ([2]; NFM, 95% EL): − | Crystallization upon dilution in water ([2]; NFM, 95% PC): −

COc1c(Cl)ccc(Cl)c1C(=O)O [Dicamba]
Dissolution of active ingredient into N-acetyl morpholine (NAM) [3]: >100 grams of active ingredient in 100 g solvent | Dissolution of active ingredient into N-formyl morpholine (NFM) [3]: >100 grams of active ingredient in 100 g solvent | Dissolution of active ingredient into N-propionyl morpholine (NPM) [3]: >100 grams of active ingredient in 100 g solvent

CC1(C)CCC(Cc2ccc(Cl)cc2)C1(O)Cn1cncn1 (centres unmarked) [Metconazole]
Dissolution of active ingredient into N-acetyl morpholine (NAM) [3]: >25 grams of active ingredient in 100 g solvent | Dissolution of active ingredient into N-formyl morpholine (NFM) [3]: >25 grams of active ingredient in 100 g solvent | Dissolution of active ingredient into N-propionyl morpholine (NPM) [3]: >25 grams of active ingredient in 100 g solvent
